PubChem BioAssay AID624407 (The Scripps Research Institute Molecular Screening Center, 2012)
Active and inactive are the calls of the source. How the calls were made is not given here.

test system: parental CHO-K1 cells, HTRF counterscreen; assay: antagonist activity in parental CHO-K1 cells, late-stage follow-up, counter-screen for OX1R antagonist project, cell-based, HTRF, dose response (AID 624407)

| SMILES | IC50 |
| --- | --- |
| Cc1cc(Cl)ccc1OCCCC(=O)NCCN1C(=O)S/C(=C\c2cccnc2)C1=O | 8.79 µM |
| CCSC1=C(C#N)C(c2ccccc2Cl)C(C(=O)c2cccs2)C(O)(C(F)(F)F)N1 (stereo unspecified) | > 59.6 µM (inactive) |
| O=c1cc(CN2CC(O)Cc3ccc4ccccc4c32)nc2sccn12 (stereo unspecified) | > 59.6 µM (inactive) |
| O=C(CN1C(=O)/C(=C\c2cccc(Br)c2)Oc2ccccc21)NCC1CCCO1 (stereo unspecified) | > 59.6 µM (inactive) |
| CCN(CC)c1ccc(NC(=O)Cn2c(C(C)NC(=O)c3ccccc3)nc3ccccc32)cc1 (stereo unspecified) | > 59.6 µM (inactive) |
| Cc1c(NS(=O)(=O)c2cccc(C(=O)OCC(=O)N(C)C3CCCCC3)c2)c(=O)n(-c2ccccc2)n1C | > 59.6 µM (inactive) |
| CC(=C/c1ccccc1)/C=C1/SC(N2CCOCC2)=NC1=O | 12.4 µM (inactive) |
| Cc1cccc(NC(=O)[C@@H]2CCCN2S(=O)(=O)c2ccc(Cl)cc2)c1 | > 59.6 µM (inactive) |
| Cc1ccccc1NC(=O)C1CCCN1S(=O)(=O)c1ccccc1C(F)(F)F (stereo unspecified) | > 59.6 µM (inactive) |
| CSc1cccc(NC(=O)C2CCCN2S(=O)(=O)c2ccc(Br)s2)c1 (stereo unspecified) | > 59.6 µM (inactive) |
| CCc1cc(C(=O)OCC(=O)N2CCC(c3ccccc3)=N2)sc1C | > 59.6 µM (inactive) |
| COc1cccc(/C=C2/Oc3ccccc3N(CC(=O)NCC3CCCO3)C2=O)c1 (stereo unspecified) | > 59.6 µM (inactive) |
| Cc1noc(C)c1COc1ccc(C(=O)OCC(=O)N2CC(=O)Nc3ccccc32)cc1 | > 59.6 µM (inactive) |
| COCCCNC(=O)CCC(=O)NNc1nc2ccccc2c2nc(-c3ccccc3)nn12 | > 59.6 µM (inactive) |
| CSc1cccc(N2CC(C(=O)NCCN3C(=O)S/C(=C\c4cccnc4)C3=O)CC2=O)c1 (stereo unspecified) | 3.37 µM |
| CCOc1ccccc1C(=O)Nc1ccc2nc3n(c(=O)c2c1)CCCCC3 | > 59.6 µM (inactive) |
| COc1cc(OC)c(-c2nc3ccccc3s2)cc1OC | > 59.6 µM (inactive) |
| Cc1ccc(-c2csc3nnc(SCC(=O)Nc4nsc(-c5ccccc5)n4)n23)cc1 | > 59.6 µM (inactive) |
| CN(N=Cc1cc([N+](=O)[O-])ccc1O)c1ccccc1 | > 59.6 µM (inactive) |
| CCOC(=O)N1CCN(C(=O)CSc2ccc(-c3ccccc3)nn2)CC1 | > 59.6 µM (inactive) |
| CCn1c(SCC(=O)Nc2ccc3c(c2)c2ccccc2n3CC)nnc1-c1cnccn1 | > 59.6 µM (inactive) |
| Cc1cccc(C=NNC(=O)c2cc3c(s2)-c2ccccc2CC3)c1 | > 59.6 µM (inactive) |
| COc1ccc(OC)c(S(=O)(=O)NCC(c2ccco2)N2CCc3ccccc32)c1 (stereo unspecified) | > 59.6 µM (inactive) |
| Fc1cccc(Nc2nc3ccccc3n3cnnc23)c1 | > 59.6 µM (inactive) |
| O=C(CSc1ccc(-c2ccccc2)nn1)c1cccs1 | > 59.6 µM (inactive) |
| CCc1cc2c(SCC(=O)N(CC)c3c(N)n(Cc4ccccc4)c(=O)[nH]c3=O)ncnc2s1 | > 59.6 µM (inactive) |
